Test results from patent publication US20130296390A1, “METHOD AND COMPOSITIONS FOR ENHANCING THE SAFETY OF ORALLY ADMINISTERED MAGNESIUM ALPHA-LIPOATE” (BIOLINK LIFE SCIENCES, INC., priority 2012, published 2013).
Entries after “also recorded” stand apart in the source; their conditions may differ.

Tests used:
[1] = molecular target: T1, sodium-dependent vitamin transporters (SMVT) (Homo sapiens, UniProt Q9Y289); settings: keratinocytes, cited from earlier work; for Ki: read-out: Ki, inhibition of biotin uptake
T1 construct: in keratinocytes, the SMVT transport system; endogenous in cells; host or cells: human keratinocytes
T1 sequence (Q9Y289 1-635): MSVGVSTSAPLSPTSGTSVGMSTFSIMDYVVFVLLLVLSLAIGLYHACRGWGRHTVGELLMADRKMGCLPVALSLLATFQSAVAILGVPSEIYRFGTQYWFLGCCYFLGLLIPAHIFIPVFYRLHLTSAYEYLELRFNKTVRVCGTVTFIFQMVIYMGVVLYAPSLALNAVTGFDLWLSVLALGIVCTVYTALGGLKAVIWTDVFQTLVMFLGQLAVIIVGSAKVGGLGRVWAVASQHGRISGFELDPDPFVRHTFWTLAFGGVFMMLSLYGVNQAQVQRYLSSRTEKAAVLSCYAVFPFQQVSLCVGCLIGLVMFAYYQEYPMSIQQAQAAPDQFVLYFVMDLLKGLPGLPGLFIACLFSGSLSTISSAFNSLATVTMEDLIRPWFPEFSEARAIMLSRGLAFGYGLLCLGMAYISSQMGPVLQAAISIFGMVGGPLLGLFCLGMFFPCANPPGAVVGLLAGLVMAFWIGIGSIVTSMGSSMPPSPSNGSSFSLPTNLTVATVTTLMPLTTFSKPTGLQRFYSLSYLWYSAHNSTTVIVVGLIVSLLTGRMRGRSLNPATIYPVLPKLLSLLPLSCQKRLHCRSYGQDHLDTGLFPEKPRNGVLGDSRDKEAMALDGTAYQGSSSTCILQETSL

[2] = in vivo; cited from earlier work
[3] = Short and long-term toxicity studies of ALA (NOAEL); type: in vivo
Method: Alpha-Lipoic acid is the sole remaining component in the formulation tested in Example 1. The safety and absence of toxicity of ALA has been established in both short and long-term toxicity studies, including in vitro mutagenicity/genotoxicity studies. The no-observed adverse effect level (NOAEL) of ALA is considered to be 60 mg per kg body weight per day. […] Nonetheless, the inventor examined to a number of potential mechanisms of toxicity related to alpha-lipoate.

[4] = cited from earlier work
[5] = molecular target: T2, pyruvate carboxylase (EC 6.4.1.1) (Rattus norvegicus, UniProt P52873); settings: intraperitoneal ALA 8.8 mg/kg·day or 31.8 mg/kg·d, rats, compared with vehicle controls (P<0.05); cited from earlier work
T2 construct: Lipoic acid reduces the activities of biotin-dependent carboxylases in rat liver; from tissue; host or cells: rat liver
T2 sequence (P52873 21-1178): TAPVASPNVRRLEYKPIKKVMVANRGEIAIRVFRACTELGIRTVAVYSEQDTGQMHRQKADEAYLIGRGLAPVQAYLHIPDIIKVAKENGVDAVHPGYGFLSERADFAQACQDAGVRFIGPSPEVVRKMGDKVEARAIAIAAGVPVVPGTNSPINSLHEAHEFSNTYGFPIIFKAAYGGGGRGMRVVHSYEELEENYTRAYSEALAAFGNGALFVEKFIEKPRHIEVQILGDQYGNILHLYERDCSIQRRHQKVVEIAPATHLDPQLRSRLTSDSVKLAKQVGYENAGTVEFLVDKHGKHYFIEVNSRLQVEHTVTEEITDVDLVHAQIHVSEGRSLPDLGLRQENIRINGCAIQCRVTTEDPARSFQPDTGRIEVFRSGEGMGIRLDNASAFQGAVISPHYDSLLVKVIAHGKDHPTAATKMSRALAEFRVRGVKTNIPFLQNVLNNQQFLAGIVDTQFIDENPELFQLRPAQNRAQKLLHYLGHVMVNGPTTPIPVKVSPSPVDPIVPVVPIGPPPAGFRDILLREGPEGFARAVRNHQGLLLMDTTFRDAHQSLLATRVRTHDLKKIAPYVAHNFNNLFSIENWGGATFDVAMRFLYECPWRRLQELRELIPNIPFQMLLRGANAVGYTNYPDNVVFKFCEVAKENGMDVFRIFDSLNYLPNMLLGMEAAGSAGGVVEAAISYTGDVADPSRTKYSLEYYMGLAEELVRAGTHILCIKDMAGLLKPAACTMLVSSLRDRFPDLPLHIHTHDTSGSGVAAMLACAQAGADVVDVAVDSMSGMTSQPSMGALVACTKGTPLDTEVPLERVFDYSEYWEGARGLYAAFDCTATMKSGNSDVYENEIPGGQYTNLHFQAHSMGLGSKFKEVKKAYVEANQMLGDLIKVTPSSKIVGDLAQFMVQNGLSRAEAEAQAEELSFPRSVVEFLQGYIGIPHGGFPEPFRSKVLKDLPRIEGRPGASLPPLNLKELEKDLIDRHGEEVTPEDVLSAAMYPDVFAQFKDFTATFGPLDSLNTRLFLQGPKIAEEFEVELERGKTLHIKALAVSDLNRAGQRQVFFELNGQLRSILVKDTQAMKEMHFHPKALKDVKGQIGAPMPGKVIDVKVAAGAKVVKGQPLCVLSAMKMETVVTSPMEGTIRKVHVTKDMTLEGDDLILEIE

[6] = oral, chronic daily doses about 30 mg/kg to over 2,000 mg/kg body weight; cited from earlier work
[7] = test system: second biotin transport component; settings: keratinocytes, cited from earlier work
[8] = intravenous, acute 100 mg/kg dose, rat; cited from earlier work
[9] = test system: acetyl-CoA carboxylase (EC 6.4.1.2); settings: intraperitoneal ALA 8.8 mg/kg·day or 31.8 mg/kg·d, rats; wide intragroup variability; cited from earlier work
[10] = oral; cited from earlier work
[11] = molecular target: T3, β-methylcrotonyl-CoA carboxylase (EC 6.4.1.4) (Rattus norvegicus, UniProt Q5I0C3+Q5XIT9); settings: intraperitoneal ALA 8.8 mg/kg·day or 31.8 mg/kg·d, rats, compared with vehicle controls (P<0.05); cited from earlier work
T3 construct: Lipoic acid reduces the activities of biotin-dependent carboxylases in rat liver; from tissue; host or cells: rat liver
T3 sequence (Q5I0C3 39-715): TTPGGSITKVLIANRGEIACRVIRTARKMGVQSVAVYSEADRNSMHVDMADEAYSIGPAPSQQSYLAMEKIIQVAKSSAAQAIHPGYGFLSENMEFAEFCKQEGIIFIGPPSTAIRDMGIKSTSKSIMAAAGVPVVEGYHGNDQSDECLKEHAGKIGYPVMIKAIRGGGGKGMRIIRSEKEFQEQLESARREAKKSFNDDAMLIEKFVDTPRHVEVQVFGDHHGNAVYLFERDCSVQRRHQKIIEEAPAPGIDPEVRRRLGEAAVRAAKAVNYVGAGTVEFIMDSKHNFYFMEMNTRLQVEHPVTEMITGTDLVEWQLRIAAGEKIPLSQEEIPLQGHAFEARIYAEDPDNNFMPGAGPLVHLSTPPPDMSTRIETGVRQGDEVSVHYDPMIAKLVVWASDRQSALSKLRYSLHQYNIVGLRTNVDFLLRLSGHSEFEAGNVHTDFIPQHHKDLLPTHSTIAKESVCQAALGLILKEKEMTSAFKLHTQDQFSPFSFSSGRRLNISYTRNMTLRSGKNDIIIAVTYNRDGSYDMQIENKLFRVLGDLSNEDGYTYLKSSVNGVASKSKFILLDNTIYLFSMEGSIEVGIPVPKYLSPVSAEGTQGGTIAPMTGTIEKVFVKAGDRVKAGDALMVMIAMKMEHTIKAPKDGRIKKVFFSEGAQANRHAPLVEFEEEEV
T3 sequence (Q5XIT9 23-563): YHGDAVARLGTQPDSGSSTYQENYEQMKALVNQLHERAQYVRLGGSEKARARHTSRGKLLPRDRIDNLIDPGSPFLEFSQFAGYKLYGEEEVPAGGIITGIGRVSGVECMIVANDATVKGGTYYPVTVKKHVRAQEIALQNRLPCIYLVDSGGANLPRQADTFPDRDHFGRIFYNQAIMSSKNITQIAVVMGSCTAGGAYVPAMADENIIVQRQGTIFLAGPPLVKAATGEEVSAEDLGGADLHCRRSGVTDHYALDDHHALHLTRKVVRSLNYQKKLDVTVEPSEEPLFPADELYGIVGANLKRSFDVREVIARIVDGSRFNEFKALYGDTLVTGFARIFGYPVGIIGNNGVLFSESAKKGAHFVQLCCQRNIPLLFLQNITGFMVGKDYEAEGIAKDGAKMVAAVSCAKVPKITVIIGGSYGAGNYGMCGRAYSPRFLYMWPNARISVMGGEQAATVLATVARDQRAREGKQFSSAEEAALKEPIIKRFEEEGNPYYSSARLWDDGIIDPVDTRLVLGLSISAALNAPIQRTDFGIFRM

[12] = Physicochemical description
[13] = test system: mouse model of chronic kidney disease (CKD); experiment: Example 1: phosphate binders in diet of LDLR−/− mouse model of CKD; type: in vivo; settings: chronic daily dose of 0.5% or 1.5% (by weight) in the diet, oral
From the text: This study critically examined the in vivo efficacy of phosphate binding by a combination of phosphate binders, magnesium R-(+)-α-lipoate and calcium succinate monohydrate, in a mouse model of chronic kidney disease (CKD). The model is partial renal ablation in the LDL receptor-deficient (LDLR−/−) mouse that is fed high fat/cholesterol diets. […] In these animals, CKD causes intensification of vascular calcification (VC).
Materials: Calcium succinate monohydrate (CaSucc) and magnesium R-(+)-α-lipoate (MgRALA) having high purity and freedom from contaminating trace metals were provided by BioLink Life Sciences, Inc. Other chemicals were purchased from Sigma Aldrich Company (St. Louis, Mo.). […]
Two sets of animals in the group receiving magnesium alpha-lipoate were treated according to the protocol. […] Myocardin, Smad6, sm22α, calponin, αSMA, BMP-2, RUNX2/Cbfa1, osteopontin and osteocalcin message levels were measured by real time RT-PCR. Osteocalcin, type 1 collagen and αSMA were determined by immunohistochemistry. MGP levels and specifically γ-carboxylated MGP were determined with a specific antibody. […]
Blood Tests: Serum was analyzed on the day of blood draw for blood urea nitrogen [BUN], cholesterol, calcium, glucose and phosphate by standard autoanalyzer laboratory methods.

Compound: O=C(O)CCCC[C@@H](S)CCS (racemic) [dihydrolipoic acid]
- Ki [1]: 11.4 µM

Compound: O=C(O)CCCCC1CCSS1 (stereo not drawn) [ALA, alpha-lipoic acid]
- no-observed adverse effect level (NOAEL) [2]: 60 mg per kg body weight per day
- Ki [1]: 4.6 µM
- NOAEL equivalent for an adult man ([3]; adult man): 4.2 grams of ALA per day
- NOAEL equivalent for an adult woman ([3]; adult woman): 3 grams of ALA per day
- toxicities in human studies ([4]; normal subjects and those with chronic kidney disease): no significant toxicities have been observed
- overt adverse effects in humans ([4]; oral, total doses 100 mg to 1800 mg daily for months or years): without overt adverse effects; also recorded: no overt adverse effects
- reduction of pyruvate carboxylase activity [5]: 28-36%
- overt adverse effects in animals [6]: without overt adverse effects
- inhibition of second biotin transport component [7]: not inhibited
- S-adenosylhomocysteine [8]: elevated
- S-adenosylmethionine [8]: depleted
- decrease of acetyl carboxylase activity [9]: ≤ 43%
- fraction of orally administered ALA absorbed into cells and the systemic circulation [10]: greater than 90%
- time in which most of the orally administered ALA is absorbed [10]: two
- reduction of β-methylcrotonyl carboxylase activity [11]: 28-36%

Compound: O=C(O)CCCCC1CCSS1 (stereo not drawn) [Magnesium a-lipoate, magnesium alpha-lipoate]
- stability and hygroscopicity of the powder [12]: stable, non-hygroscopic

Compound: O=C(O)CCCC[C@@H]1SC[C@@H]2NC(=O)N[C@@H]21 [biotin, D-biotin]
- Michaelis-Menten constant for biotin ([1]; SMVT transport system): 22.7 ± 1.0 µM
- maximal velocity ([1]; SMVT transport system): 163.6±3.5 pmol per five minutes per milligram of protein
- Ki ([7]; read-out: Ki, second biotin transport component, saturable at very low biotin concentrations): 0.0026 ± 0.0001 µM

Compound: C[C@@H]1NC(=O)N[C@@H]1CCCCCC(=O)O [desthiobiotin]
- Ki [1]: 15.2 µM

Compound: O=C(O)CCCC[C@@H]1CCSS1 [magnesium R-(+)-alpha-lipoate, Magnesium R-(+)-alpha-lipoate]
- overt adverse effects (FIG. 1) [13]: hair loss and skin disorders
- stability and hygroscopicity of the powder [12]: stable, non-hygroscopic

Compound: CC(C)(CO)[C@@H](O)C(=O)NCCC(=O)O [panthothenic acid]
- Ki [1]: 1.2 µM
- inhibition of second biotin transport component [7]: not inhibited
